The results in this text go back to patent publication US12098386B2, “Use of germ cells for preparing a micro hair follicle” (L'OREAL, priority 2016, dated 2024).

Structures are written as SMILES.

The subject of the experiment is germ cells. Nature of the experiment: Culture-amplification of germ cells on 3T3 feeder layer in Green 7F medium with or without ROCK inhibitor. It counts as cell-based. The text has this:
The germ cell region, called the bulge (FIG. 1), is extracted from the connective tissue sheath (FIG. 2) and then placed in a petri dish containing 3T3i cells (FIG. 3).
The hair follicles are extracted from a surgical residue of scalp. Said residue is first cut into 5 mm^2 portions and then sectioned using a scalpel between the dermis and the hypodermis.
The follicles are extracted using ophthalmic surgery forceps and are then sectioned just above the papilla with a scalpel. The bulb is then recovered. At this stage, the bulb comprises two compartments: the dermal compartment (dermal papilla and connective tissue sheath) and the matrix cells which form a cell mass.
The epithelial part is separated from the dermal part using perfusion needles. Only the epithelial part is cultured.
The MEM medium+10% FCS+7F (called Green 7F medium) has the following composition:
After microdissection, the hair follicles in the telogen phase are deposited in Petri dishes 60 mm in diameter, seeded beforehand with 1 million 3T3 cells, and covered with the complete Green 7F culture medium; a culture of germ cells at confluence is obtained.
The telogen hair with the non-dissociated germ cell clump are isolated and deposited on a 3T3 feeder layer (FIG. 3). After 3 d of culture, the cells begin to proliferate in the form of a colony around the germ clump (FIG. 4). The cells reach subconfluence in 7 days (FIG. 5). […]

On to `C[C@@H](N)[C@H]1CC[C@H](C(=O)Nc2ccncc2)CC1` [Y27632], for which the “Differentiation of germ cells into marker-positive keratinocytes (K15, CD29, CD200)” value (germ cells cultured in 7F medium containing the rock inhibitor (FIG. 6)) was “keratinocytes that are positive for the K15, CD29 and CD200 markers”. Further, the “Proliferation of the germ cells (reaching confluence)” value (green 7F medium, Y27632 at 10 μM, in the same medium without the rock inhibitor the cells do not proliferate (FIG. 7a/7b)) was “very rapidly reaching confluence”.
